This note sets out measurements from patent US11020399B2, “Intermediates useful in the synthesis of compounds as modulators of protein kinases” (Rhizen Pharmaceuticals SA, priority 2011, dated 2021).

What all share (format): biochemical
The target of one experiment is PI3kα (Homo sapiens, UniProt P42336). In words: Fluorescent (HTRF) determination of PI3 kinase enzyme activity, PI3Kα. As to conditions: 1 uM. The gist of the method:
(§1)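 Human PI3K isoforms were preincubated with compound for 10 min at room temperature in 10 mM MgCl2, 5 mM DTT, 1.38 μM PIP2, then reacted 30 min after adding 400 μM ATP stock. PIP3 was read by HTRF (665/620 nm). Percent inhibition used blank and enzyme controls; single-point testing was at 1 uM for α/β and 0.3 or 0.1 uM for γ/δ.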

For a further experiment, the target named is PI3kβ (Homo sapiens, UniProt P42338). Nature of the experiment: Fluorescent (HTRF) determination of PI3 kinase enzyme activity, PI3Kβ. The gist of the method:
as §1

For the next experiment, the target named is PI3kγ (Homo sapiens, UniProt P48736). Nature of the experiment: Fluorescent (HTRF) determination of PI3 kinase enzyme activity, PI3Kγ. As to conditions: for inhibition at 0.3 µM: 300 nM (Examples 1-59). The gist of the method: as §1
Background: Time-resolved FRET reads energy transfer from a long-lived donor to a nearby acceptor.

The next experiment deals with PI3kδ (Homo sapiens, UniProt O00329). In words: Fluorescent (HTRF) determination of PI3 kinase enzyme activity, PI3Kδ. The following applies: for inhibition at 0.1 µM: 100 nM (Examples 60-137); for inhibition at 0.3 µM: 300 nM (Examples 1-59). The gist of the method:
as §1

Molecules are shown by their SMILES. Where only a bound is given, the exact number is not on record here.

PI3kα, sequence (P42336 whole entry, canonical isoform): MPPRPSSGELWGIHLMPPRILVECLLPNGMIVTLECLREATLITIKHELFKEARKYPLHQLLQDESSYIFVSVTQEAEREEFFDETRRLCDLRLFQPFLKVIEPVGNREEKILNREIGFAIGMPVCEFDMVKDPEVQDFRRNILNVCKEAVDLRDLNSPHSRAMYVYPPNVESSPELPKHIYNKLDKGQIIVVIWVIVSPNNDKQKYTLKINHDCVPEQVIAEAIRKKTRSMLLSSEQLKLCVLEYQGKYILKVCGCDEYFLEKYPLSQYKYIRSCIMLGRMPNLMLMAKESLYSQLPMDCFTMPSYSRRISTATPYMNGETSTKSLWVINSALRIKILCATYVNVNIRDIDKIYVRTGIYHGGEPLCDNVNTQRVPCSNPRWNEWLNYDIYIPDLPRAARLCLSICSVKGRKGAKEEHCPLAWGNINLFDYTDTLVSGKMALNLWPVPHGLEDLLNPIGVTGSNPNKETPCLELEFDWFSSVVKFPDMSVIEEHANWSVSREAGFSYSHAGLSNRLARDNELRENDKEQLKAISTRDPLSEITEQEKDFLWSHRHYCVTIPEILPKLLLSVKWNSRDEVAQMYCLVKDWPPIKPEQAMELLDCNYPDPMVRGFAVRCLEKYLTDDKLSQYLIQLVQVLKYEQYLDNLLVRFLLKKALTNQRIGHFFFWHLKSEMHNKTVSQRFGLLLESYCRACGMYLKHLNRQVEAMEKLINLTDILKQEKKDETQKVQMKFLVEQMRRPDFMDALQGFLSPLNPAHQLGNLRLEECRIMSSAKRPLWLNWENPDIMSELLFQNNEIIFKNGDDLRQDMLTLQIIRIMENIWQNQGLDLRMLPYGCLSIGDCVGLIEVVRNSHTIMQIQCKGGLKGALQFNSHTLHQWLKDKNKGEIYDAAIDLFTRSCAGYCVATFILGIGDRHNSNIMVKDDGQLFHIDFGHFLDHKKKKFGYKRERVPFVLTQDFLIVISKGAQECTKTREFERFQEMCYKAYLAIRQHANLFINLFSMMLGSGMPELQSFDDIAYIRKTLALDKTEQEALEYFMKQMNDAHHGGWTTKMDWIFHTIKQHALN
PI3kα, sequence (P27986 whole entry partner, canonical isoform): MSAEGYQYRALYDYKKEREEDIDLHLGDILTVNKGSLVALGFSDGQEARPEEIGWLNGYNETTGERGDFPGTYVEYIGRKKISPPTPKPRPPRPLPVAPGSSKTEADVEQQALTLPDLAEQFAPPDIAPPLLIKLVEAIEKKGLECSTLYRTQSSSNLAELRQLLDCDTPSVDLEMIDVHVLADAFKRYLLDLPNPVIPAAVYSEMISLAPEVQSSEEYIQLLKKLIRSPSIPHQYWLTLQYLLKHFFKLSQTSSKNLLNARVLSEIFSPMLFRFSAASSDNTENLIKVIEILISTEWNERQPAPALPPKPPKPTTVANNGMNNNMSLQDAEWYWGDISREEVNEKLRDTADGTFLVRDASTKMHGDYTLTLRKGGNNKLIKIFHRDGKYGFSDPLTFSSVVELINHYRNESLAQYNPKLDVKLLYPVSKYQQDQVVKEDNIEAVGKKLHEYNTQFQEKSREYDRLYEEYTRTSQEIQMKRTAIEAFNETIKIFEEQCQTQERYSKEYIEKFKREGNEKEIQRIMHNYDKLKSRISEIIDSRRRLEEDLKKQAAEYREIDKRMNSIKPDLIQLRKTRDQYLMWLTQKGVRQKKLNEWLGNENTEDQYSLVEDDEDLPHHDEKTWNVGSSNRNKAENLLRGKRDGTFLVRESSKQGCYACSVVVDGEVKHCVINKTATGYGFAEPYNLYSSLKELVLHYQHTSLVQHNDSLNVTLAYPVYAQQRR
PI3kγ, sequence (P48736 whole entry): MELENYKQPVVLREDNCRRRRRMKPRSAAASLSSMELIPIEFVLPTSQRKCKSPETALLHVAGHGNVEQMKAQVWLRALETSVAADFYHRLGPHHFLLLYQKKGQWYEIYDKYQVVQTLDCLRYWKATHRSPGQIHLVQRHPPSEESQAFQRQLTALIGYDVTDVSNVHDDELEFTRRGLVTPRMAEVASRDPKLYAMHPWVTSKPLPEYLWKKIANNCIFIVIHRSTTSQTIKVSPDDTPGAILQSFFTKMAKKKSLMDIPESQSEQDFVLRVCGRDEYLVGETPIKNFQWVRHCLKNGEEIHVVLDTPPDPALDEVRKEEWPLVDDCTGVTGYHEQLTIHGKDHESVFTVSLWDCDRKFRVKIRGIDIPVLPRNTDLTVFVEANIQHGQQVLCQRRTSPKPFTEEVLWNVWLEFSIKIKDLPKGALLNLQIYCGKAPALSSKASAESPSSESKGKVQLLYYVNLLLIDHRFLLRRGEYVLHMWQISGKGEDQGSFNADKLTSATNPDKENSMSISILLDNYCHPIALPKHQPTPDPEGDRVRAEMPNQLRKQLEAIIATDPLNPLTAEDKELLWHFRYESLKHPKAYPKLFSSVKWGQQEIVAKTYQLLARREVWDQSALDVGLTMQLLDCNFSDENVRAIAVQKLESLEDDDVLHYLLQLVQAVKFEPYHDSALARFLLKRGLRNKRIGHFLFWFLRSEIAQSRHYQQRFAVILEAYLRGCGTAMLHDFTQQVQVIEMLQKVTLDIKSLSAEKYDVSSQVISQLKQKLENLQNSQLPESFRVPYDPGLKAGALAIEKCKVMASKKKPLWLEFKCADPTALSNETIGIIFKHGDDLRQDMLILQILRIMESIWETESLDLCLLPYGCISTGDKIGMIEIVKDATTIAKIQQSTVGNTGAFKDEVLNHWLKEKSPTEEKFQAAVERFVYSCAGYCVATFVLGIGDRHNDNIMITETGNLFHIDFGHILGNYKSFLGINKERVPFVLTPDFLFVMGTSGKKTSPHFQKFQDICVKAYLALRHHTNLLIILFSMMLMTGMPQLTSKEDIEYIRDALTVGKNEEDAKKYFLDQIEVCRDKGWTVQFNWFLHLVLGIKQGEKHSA
PI3kβ, sequence (P42338 whole entry): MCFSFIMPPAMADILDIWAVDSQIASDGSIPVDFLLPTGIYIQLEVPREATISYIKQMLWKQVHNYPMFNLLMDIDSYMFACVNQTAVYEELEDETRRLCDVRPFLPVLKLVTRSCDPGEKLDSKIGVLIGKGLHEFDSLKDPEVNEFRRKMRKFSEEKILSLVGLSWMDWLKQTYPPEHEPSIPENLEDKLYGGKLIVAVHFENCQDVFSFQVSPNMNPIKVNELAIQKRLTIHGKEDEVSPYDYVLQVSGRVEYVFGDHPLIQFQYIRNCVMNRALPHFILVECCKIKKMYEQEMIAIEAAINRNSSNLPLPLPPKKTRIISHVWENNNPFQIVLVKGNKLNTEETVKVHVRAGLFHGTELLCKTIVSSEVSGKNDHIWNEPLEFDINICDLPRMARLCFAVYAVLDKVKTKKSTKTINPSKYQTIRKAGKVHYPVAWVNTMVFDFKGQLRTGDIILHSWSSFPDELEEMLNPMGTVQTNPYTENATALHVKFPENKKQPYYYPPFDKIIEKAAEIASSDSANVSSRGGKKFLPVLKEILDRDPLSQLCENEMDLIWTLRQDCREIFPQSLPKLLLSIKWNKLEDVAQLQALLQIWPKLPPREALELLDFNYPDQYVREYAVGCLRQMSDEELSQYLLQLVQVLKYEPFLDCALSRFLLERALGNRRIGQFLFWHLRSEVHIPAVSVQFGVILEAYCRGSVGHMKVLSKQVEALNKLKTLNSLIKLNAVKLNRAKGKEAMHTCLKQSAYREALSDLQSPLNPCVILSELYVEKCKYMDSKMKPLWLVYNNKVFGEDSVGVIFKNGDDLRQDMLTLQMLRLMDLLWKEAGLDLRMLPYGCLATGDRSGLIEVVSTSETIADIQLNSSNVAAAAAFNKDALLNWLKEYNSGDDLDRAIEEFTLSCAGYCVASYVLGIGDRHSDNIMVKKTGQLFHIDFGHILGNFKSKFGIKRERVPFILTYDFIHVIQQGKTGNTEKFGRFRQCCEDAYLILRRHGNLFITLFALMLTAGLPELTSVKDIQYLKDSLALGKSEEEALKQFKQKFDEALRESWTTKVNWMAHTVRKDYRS
PI3kβ, sequence (P27986 whole entry partner): as the sequence (P27986 whole entry partner, canonical isoform) above
PI3kδ, sequence (O00329 whole entry): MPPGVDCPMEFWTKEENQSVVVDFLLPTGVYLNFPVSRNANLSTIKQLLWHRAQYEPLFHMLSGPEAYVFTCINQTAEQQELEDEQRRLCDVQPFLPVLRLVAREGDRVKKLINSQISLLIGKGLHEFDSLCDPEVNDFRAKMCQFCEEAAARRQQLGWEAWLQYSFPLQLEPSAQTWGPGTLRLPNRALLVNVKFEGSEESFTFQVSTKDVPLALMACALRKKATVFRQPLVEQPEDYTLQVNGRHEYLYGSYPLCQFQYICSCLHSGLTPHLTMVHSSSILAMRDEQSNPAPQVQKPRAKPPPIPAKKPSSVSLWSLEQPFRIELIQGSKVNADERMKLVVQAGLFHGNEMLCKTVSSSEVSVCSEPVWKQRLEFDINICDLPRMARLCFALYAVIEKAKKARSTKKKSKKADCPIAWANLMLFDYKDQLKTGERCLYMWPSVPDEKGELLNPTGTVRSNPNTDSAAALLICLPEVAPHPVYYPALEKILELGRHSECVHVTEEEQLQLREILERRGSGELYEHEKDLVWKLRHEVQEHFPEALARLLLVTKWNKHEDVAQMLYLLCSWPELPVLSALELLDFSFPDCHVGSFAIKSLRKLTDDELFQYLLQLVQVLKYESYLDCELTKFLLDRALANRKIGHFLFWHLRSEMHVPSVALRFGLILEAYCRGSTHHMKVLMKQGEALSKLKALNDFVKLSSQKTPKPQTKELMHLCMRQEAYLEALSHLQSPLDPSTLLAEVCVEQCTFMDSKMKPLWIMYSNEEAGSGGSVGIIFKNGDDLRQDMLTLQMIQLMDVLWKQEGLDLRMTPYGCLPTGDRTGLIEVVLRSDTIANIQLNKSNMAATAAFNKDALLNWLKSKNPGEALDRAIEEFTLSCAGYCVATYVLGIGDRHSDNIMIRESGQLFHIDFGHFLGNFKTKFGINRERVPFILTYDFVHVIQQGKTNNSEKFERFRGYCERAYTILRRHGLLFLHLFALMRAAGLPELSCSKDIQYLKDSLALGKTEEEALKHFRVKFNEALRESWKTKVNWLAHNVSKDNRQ
PI3kδ, sequence (P27986 whole entry partner): as the sequence (P27986 whole entry partner, canonical isoform) above

Take `CC(=O)c1ccc(-c2nn(C(C)c3oc4cccc(F)c4c(=O)c3-c3cccc(F)c3)c3ncnc(N)c23)cc1F` (stereo not drawn) [Example 124, 2-(1-(3-(4-acetyl-3-fluorophenyl)-4-amino-1H-pyrazolo[3,4-d]pyrimidin-1-yl)ethyl)-5-fluoro-3-(3-fluorophenyl)-4H-chromen-4-one]: the inhibition at 1 µM was in the range of 25 to 50% against PI3kα and 0 to 25% against PI3kβ. For the same compound, the results for the inhibition at 0.1 µM against PI3kγ (100 nM (Examples 60-137)) and against PI3kδ were 0 to 25% and 25 to 50%, respectively.
Regarding `Cc1n[nH]c2cc(-c3nn([C@@H](C)c4oc5cccc(F)c5c(=O)c4-c4cccc(F)c4)c4ncnc(N)c34)ccc12` [Example 9a, (+)-2-(1-(4-amino-3-(3-methyl-1H-indazol-6-yl)-1H-pyrazolo[3,4-d]pyrimidin-1-yl)ethyl)-5-fluoro-3-(3-fluorophenyl)-4H-chromen-4-one], the inhibition at 1 µM was in the range of 0 to 25% against PI3kα and 25 to 50% on PI3kβ. The IC50 against PI3kγ and on PI3kδ was at most 50 nM each time.
With `CC(C)Oc1ccc(-c2nn(C(C)c3oc4cccc(F)c4c(=O)c3-c3ccccc3)c3ncnc(N)c23)cc1F` (single isomer, unassigned) [Example 101], the figures for the inhibition at 1 µM against PI3kα and against PI3kβ were 50 to 75% and 25 to 50%, respectively. This compound returned an IC50 against PI3kγ of 100 to 300 nM. Moreover, the results for the inhibition at 0.1 µM against PI3kγ (100 nM (Examples 60-137)) and against PI3kδ were 50 to 75% and 0 to 25%, respectively.
`CC(c1oc2cccc(F)c2c(=O)c1-c1cccc(F)c1)n1nc(-c2cc3ccccc3s2)c2c(N)ncnc21` (stereo not drawn) [Example 36, 2-(1-(4-amino-3-(benzo[b]thiophen-2-yl)-1H-pyrazolo[3,4-d]pyrimidin-1-yl)ethyl)-5-fluoro-3-(3-fluorophenyl)-4H-chromen-4-one]: the inhibition at 1 µM lay in the range of 0 to 25% against PI3kα and 50 to 75% against PI3kβ. The values for the inhibition at 0.3 µM on PI3kγ and at PI3kδ were 75 to 100% and 25 to 50%, respectively.
With `CC(C)Oc1ccc(-c2nn(C(C)c3oc4cccc(F)c4c(=O)c3-c3cccc(F)c3)c3ncnc(N)c23)cc1F` (single isomer, unassigned; (+)) [Example 7, (+)-2-(1-(4-amino-3-(3-fluoro-4-isopropoxyphenyl)-1H-pyrazolo[3,4-d]pyrimidin-1-yl)ethyl)-5-fluoro-3-(3-fluorophenyl)-4H-chromen-4-one], at PI3kα, the “% inhibition (PI3kα) 1 uM” value is reported as “C (C=>25 to 50%)”. Moreover, the inhibition at 1 µM against PI3kβ fell in the range of 50 to 75%. The IC50 against PI3kγ and at PI3kδ was at most 50 nM each time.
With `Cc1nc2ccc(-c3nn(C(C)c4oc5cccc(F)c5c(=O)c4-c4cccc(F)c4)c4ncnc(N)c34)cc2o1` (stereo not drawn) [Example 118, 2-(1-(4-amino-3-(2-methylbenzo[d]oxazol-6-yl)-1H-pyrazolo[3,4-d]pyrimidin-1-yl)ethyl)-5-fluoro-3-(3-fluorophenyl)-4H-chromen-4-one], the inhibition at 1 µM at PI3kα lay within 25 to 50%; against PI3kβ, 0 to 25%. The inhibition at 0.1 µM against PI3kγ (100 nM (Examples 60-137)) and at PI3kδ was 25 to 50% throughout.
`CC(c1oc2cccc(F)c2c(=O)c1-c1ccc(F)cc1)n1nc(-c2ccc(OC(F)F)c(F)c2)c2c(N)ncnc21` (single isomer, unassigned) [Example 97]: the inhibition at 1 µM on PI3kα and on PI3kβ was 25 to 50% in each case. Further, the inhibition at 0.1 µM against PI3kγ (100 nM (Examples 60-137)) and on PI3kδ was 25 to 50% each time.
On to `CC(c1oc2cccc(F)c2c(=O)c1-c1ccc(F)cc1)n1cnc2c(N3CCOCC3)ncnc21` (stereo not drawn) [Example 108, 5-fluoro-3-(4-fluorophenyl)-2-(1-(6-morpholino-9H-purin-9-yl)ethyl)-4H-chromen-4-one], for which the inhibition at 1 µM on PI3kα was in the range of 25 to 50%; against PI3kβ, 0 to 25%. Also, the inhibition at 0.1 µM against PI3kγ (100 nM (Examples 60-137)) and against PI3kδ was 25 to 50% in each case.
Regarding `CC(C)Oc1ccc(-c2nn(Cc3oc4cccc(F)c4c(=O)c3-c3cccc(F)c3)c3ncnc(N)c23)cc1F` [Example 3, 2-((4-amino-3-(3-fluoro-4-isopropoxyphenyl)-1H-pyrazolo[3,4-d]pyrimidin-1-yl)methyl)-5-fluoro-3-(3-fluorophenyl)-4H-chromen-4-one], the inhibition at 1 µM on PI3kα lay in the range of 25 to 50%; against PI3kβ, 0 to 25%. The IC50 at PI3kγ was 100 to 300 nM; at PI3kδ, 50 to 100 nM. Moreover, the inhibition at 0.3 µM at PI3kγ and against PI3kδ was 50 to 75% each time.
In the case of `CC(C)Oc1ccc(-c2nn(C(C)c3oc4cccc(F)c4c(=O)c3-c3cccc(F)c3)c3ncnc(N)c23)cc1F` (single isomer, unassigned; (-)) [Example 8, (−)-2-(1-(4-amino-3-(3-fluoro-4-isopropoxyphenyl)-1H-pyrazolo[3,4-d]pyrimidin-1-yl)ethyl)-5-fluoro-3-(3-fluorophenyl)-4H-chromen-4-one], at PI3kα, the “% inhibition (PI3kα) 1 uM” value is “D (D=0 to 25%)”. Also, the values for the IC50 against PI3kβ, at PI3kγ and at PI3kδ were 300 to 500 nM, at most 50 nM and at most 50 nM, respectively. Moreover, the “% inhibition (PI3kβ) 1 uM” value on PI3kβ is listed as “B (B=>50 to 75%)”.
On to `CC(c1oc2cccc(F)c2c(=O)c1-c1cccc(F)c1)n1nc(-c2ccc(N3CCOCC3)c(Cl)c2)c2c(N)ncnc21` (stereo not drawn) [Example 113, 2-(1-(4-amino-3-(3-chloro-4-morpholinophenyl)-1H-pyrazolo[3,4-d]pyrimidin-1-yl)ethyl)-5-fluoro-3-(3-fluorophenyl)-4H-chromen-4-one], for which, on PI3kα, the “% inhibition (PI3kα) 1 uM” value is “C (C=>25 to 50%)”. Also, the “% inhibition (PI3kβ) 1 uM” value on PI3kβ is “D (D=0 to 25%)”. On PI3kγ, this compound returned an IC50 of 50 to 100 nM. Also, the “% inhibition (PI3kγ) 100 nM” value on PI3kγ (100 nM (Examples 60-137), 0.1 µM) is on record as “B (B=>50 to 75%)”. At PI3kδ, the IC50 is at most 50 nM and the inhibition at 0.1 µM lay within 50 to 75%.
As to `CC(C)Oc1ccc(-c2nn(C(C)c3oc4cccc(F)c4c(=O)c3-c3ccccc3)c3ncnc(N)c23)cc1F` (racemic) [Example 100, (S)/(R)-2-(1-(4-amino-3-(3-fluoro-4-isopropoxyphenyl)-1H-pyrazolo[3,4-d]pyrimidin-1-yl)ethyl)-5-fluoro-3-phenyl-4H-chromen-4-one], the “% inhibition (PI3kα) 1 uM” value on PI3kα is “B (B=>50 to 75%)”. Besides, the “% inhibition (PI3kβ) 1 uM” value on PI3kβ is given as “B (B=>50 to 75%)”. The IC50 lay within 50 to 100 nM against PI3kγ and 100 to 300 nM against PI3kδ. Further, the values for the inhibition at 0.1 µM at PI3kγ (100 nM (Examples 60-137)) and against PI3kδ were 50 to 75% and 25 to 50%, respectively.
`CC(c1oc2cccc(F)c2c(=O)c1-c1cccc(F)c1)n1nc(-c2ccc(OC3CN(C(c4ccccc4)c4ccccc4)C3)c(F)c2)c2c(N)ncnc21` (stereo not drawn) [Example 44, 2-(1-(4-amino-3-(4-(1-benzhydrylazetidin-3-yloxy)-3-fluorophenyl)-1H-pyrazolo[3,4-d]pyrimidin-1-yl)ethyl)-5-fluoro-3-(3-fluorophenyl)-4H-chromen-4-one]: the inhibition at 1 µM at PI3kα and against PI3kβ was 0 to 25% throughout. Besides, the inhibition at 0.3 µM against PI3kγ and against PI3kδ was 25 to 50% in each case.
Consider `CC(C)Oc1ccc(-c2nn(C(C)c3oc4cccc(F)c4c(=O)c3-c3ccc(F)cc3)c3ncnc(N)c23)cc1F` (racemic) [Example 94, (S)/(R)-2-(1-(4-amino-3-(3-fluoro-4-isopropoxyphenyl)-1H-pyrazolo[3,4-d]pyrimidin-1-yl)ethyl)-5-fluoro-3-(4-fluorophenyl)-4H-chromen-4-one], for which the “% inhibition (PI3kα) 1 uM” value on PI3kα is “C (C=>25 to 50%)”. At PI3kβ, this compound showed an inhibition at 1 µM of 25 to 50%. For the same compound, the inhibition at 0.1 µM against PI3kγ (100 nM (Examples 60-137)) and against PI3kδ was 25 to 50% each time.
`CC(c1oc2cccc(F)c2c(=O)c1-c1cccc(F)c1)n1ncc2c(N(C)C)ncnc21` (stereo not drawn) [Example 28, 2-(1-(4-(dimethylamino)-1H-pyrazolo[3,4-d]pyrimidin-1-yl)ethyl)-5-fluoro-3-(3-fluorophenyl)-4H-chromen-4-one]: the inhibition at 1 µM lay in the range of 0 to 25% at PI3kα and 25 to 50% at PI3kβ. In addition, the inhibition at 0.3 µM on PI3kγ and against PI3kδ was 50 to 75% throughout.
For the compound `CC(c1oc2cccc(F)c2c(=O)c1-c1ccccc1)n1nc(-c2ccc(OC(F)F)c(F)c2)c2c(N)ncnc21` (racemic) [Example 102, (S)/(R)-2-(1-(4-amino-3-(4-(difluoromethoxy)-3-fluorophenyl)-1H-pyrazolo[3,4-d]pyrimidin-1-yl)ethyl)-5-fluoro-3-phenyl-4H-chromen-4-one], the “% inhibition (PI3kα) 1 uM” value on PI3kα is given as “C (C=>25 to 50%)”. This compound also had an inhibition at 1 µM against PI3kβ of 50 to 75%. The inhibition at 0.1 µM against PI3kγ (100 nM (Examples 60-137)) is 25 to 50%; against PI3kδ it was 0 to 25%.
For the compound `CC(c1oc2cccc(F)c2c(=O)c1-c1cccc(F)c1)n1nc(N(C)C)c2c(N)ncnc21` (stereo not drawn) [Example 38, 2-(1-(4-amino-3-(dimethylamino)-1H-pyrazolo[3,4-d]pyrimidin-1-yl)ethyl)-5-fluoro-3-(3-fluorophenyl)-4H-chromen-4-one], the inhibition at 1 µM against PI3kα and on PI3kβ was 25 to 50% throughout. In addition, the inhibition at 0.3 µM was 0 to 25% on PI3kγ and 50 to 75% against PI3kδ.
In the case of `CC(c1oc2cccc(F)c2c(=O)c1-c1cccc(F)c1)n1nc(N2CCOCC2)c2c(N)ncnc21` (stereo not drawn) [Example 37, 2-(1-(4-amino-3-morpholino-1H-pyrazolo[3,4-d]pyrimidin-1-yl)ethyl)-5-fluoro-3-(3-fluorophenyl)-4H-chromen-4-one], the inhibition at 1 µM at PI3kα was 0 to 25%; on PI3kβ it was 25 to 50%. For the same compound, the inhibition at 0.3 µM on PI3kγ fell in the range of 50 to 75%; at PI3kδ, 0 to 25%.
`CC(c1oc2cccc(F)c2c(=O)c1-c1cccc(F)c1)n1cnc2c(N)ncnc21` (stereo not drawn) [Example 11, 2-(1-(6-amino-9H-purin-9-yl)ethyl)-5-fluoro-3-(3-fluorophenyl)-4H-chromen-4-one]: the inhibition at 1 µM against PI3kα and on PI3kβ was 50 to 75% each time. Moreover, the inhibition at 0.3 µM on PI3kγ lay in the range of 25 to 50%; against PI3kδ, 50 to 75%.

By inhibition is commonly meant the percentage by which the read-out fell short of the control. What is called IC50 is the concentration needed to halve the response being measured. Read a low IC50 as greater potency in that assay.
